Earlier results on 1 molecule are cited in patent publication US6329550A, “Amidomalonamides useful as inhibitors of MMP of matrix metalloproteinase” (Aventis Pharmaceuticals Inc., priority 1999, dated 2001).

The subject of this series is B16-BL6 murine melanoma. Particulars: intraperitoneal administration; lung colonies produced by intravenous injection of B16-BL6 murine melanoma in C57BL/6N mice.

Each structure is given as a SMILES string.

In the case of `CNC(=O)[C@H](Cc1ccccc1)NC(=O)[C@H](CC(C)C)[C@H](CSc1cccs1)C(=O)NO` [batimastat], the “growth and metastatic spread and number of lung colonies” value is “significant inhibition”.
